Measurements taken from PMC5737332.

Legend:
[1] = system: AATAAT_ATTATT hairpin (DNA, hairpin) GGGGAATAATCGCGATTATTCCCCAATAATCGCGATTATT; test: SPR competition; conditions: 200 mM NaCl, 3 mM EDTA, 10 mM HEPES pH 7.4, 0.05% P-20, 25 °C
[2] = system: AATAAT_ATTATT hairpin (DNA, hairpin) GGGGAATAATCGCGATTATTCCCCAATAATCGCGATTATT; test: SPR (Biacore X-100); conditions: Na+ 200 mM; 25 °C; site 1 of 2; running buffer for compound titration not explicitly stated
[3] = system: AATT hairpin (DNA, hairpin) CGAATTCGTCTCCGAATTCG; test: SPR (Biacore X-100); conditions: Na+ 200 mM; 25 °C; site 1 of 2; running buffer for compound titration not explicitly stated
[4] = system: (AT)4 hairpin (DNA, hairpin) CATATATATCCCCATATATATG; test: SPR (Biacore X-100); conditions: Na+ 200 mM; 25 °C; site 1 of 2; running buffer for compound titration not explicitly stated
[5] = system: (CG)4 hairpin (DNA, hairpin) CGCGCGCGTTTTCGCGCGCG; test: SPR (Biacore X-100); conditions: Na+ 200 mM; 25 °C; one-site fit; running buffer for compound titration not explicitly stated
HMGB1 box A and box B = HMGB1 box A and box B (rat, UniProt P63159 8-165); test: SPR; K1, high-affinity site of two-site fit; SPR (Biacore X-100), HEPES 1 buffer: 10 mM HEPES, 3 mM EDTA, 200 mM NaCl, 0.05% P-20, pH 7.4, 25 C; conditions: protein: recombinant; tags: GST (GST-tagged construct in pGEX2T); label: 5'-biotin; hairpin as stated by the authors; loop underlining lost in text
HMGB1 box A and box B, sequence (P63159 8-165): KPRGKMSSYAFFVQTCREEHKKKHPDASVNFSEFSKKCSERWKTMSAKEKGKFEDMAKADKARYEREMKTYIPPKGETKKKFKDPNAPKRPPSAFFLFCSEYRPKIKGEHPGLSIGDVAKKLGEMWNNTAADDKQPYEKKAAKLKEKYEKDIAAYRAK

Row | Molecule | IC50 ([1]; displaces 2 μM HMGA1a(Δ50-91) protein) [nM] | IC50 ([1]; displaces 2 μM HMGB1 (box A+B) protein) [nM] | K1 (KD) [2] [nM] | K1 (KD) [3] [nM] | K1 (KD) [4] [nM] | K (KD) [5] [nM] | Kd (HMGB1 box A and box B) [nM]
1 | O=C(Nc1ccc(NC2=NCCN2)c(Cl)c1)c1ccc(NC2=NCCN2)cc1 | 6000 | 3400 | 430 | 262 | 650 | 6850 | –
2 | GGGGAATAATCGCGATTATTCCCCAATAATCGCGATTATT (structured_DNA) [AATAAT_ATTATT hairpin] | – | – | – | – | – | – | 330
